The record followed here is patent publication US10058633B2, “Biodegradable scaffolds” (Board of Regents of the University of Texas System, priority 2010, dated 2018).

The subject of this experiment is Human umbilical vein endothelial cells (HUVEC). Description: Cellular uptake of FITC-BSA released from PLGA/pSi microspheres (transwell, confocal). It counts as cell-based. The note with it: 7 days. As to the method: 40,000 HUVEC were seeded and cultured on a glass coverslip in a 12 well plate with 500 million PLGA/pSi microspheres loaded with FITC-BSA in a transwell on top of the cells. The media were changed every 3 days. Cellular uptake of FITC-BSA released from the PLGA/pSi microspheres was observed by confocal microscopy staining cells with fluorescent phalloidin (actin filaments) and DRAQ5 (nuclei) after fixation (10% formaldehyde).
Detection of the FITC-BSA loaded pSi particles was based on autofluorescence using 488 excitation laser and the cells were analyzed by using 561 and 632 excitation laser for pholloidin and DRAQ5 respectively. Images were acquired using a Leica MD 6000 upright confocal microscope equipped with a 63× oil immersion objective.

“BSA in solution: control group: bovine serum albumin in solution”: the “BSA accumulation in cells” value is “did not show any BSA accommulation in cells”.
